According to patent US20250369032A1 (priority 2023, published 2025):
“And” between values parts separate entries of the source, which are not always exact repeats. Equal entries are not always repeated. Where two headings read alike, the source gives them in different places.

Experiments:
alkaline phosphatase [1] = target: T1, alkaline phosphatase (Bos taurus, UniProt P19111); format: biochemical; parameters: purchased Sigma Aldrich, St. Louis, MO P0114 (original source); P7640 (second source, 'new AP' condition only)
T1 sequence (P19111 20-506): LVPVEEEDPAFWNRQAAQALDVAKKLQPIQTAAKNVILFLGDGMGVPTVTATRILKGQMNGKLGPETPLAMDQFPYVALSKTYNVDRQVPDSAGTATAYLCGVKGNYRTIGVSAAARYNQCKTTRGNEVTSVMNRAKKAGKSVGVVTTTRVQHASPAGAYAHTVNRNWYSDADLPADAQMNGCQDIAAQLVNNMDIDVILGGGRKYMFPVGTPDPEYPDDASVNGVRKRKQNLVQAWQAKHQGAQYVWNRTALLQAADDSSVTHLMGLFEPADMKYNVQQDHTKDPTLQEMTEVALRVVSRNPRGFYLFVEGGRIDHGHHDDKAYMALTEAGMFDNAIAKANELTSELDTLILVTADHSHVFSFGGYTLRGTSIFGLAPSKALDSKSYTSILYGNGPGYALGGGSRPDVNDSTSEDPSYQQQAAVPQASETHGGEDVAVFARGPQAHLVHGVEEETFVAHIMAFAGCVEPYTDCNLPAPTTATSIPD

skin = details: cited from earlier work
[2] = tested on: endogenous skin phosphatase; format: biochemical, porcine; details: optical density compared to the naïve condition
Description: Our next studies involved applying the test substance (500 μL) directly to the epidermis side of previously frozen porcine skin (Spear Products, Coopersburg, PA) that is placed in a holder that only exposes the epidermis side for 30 minutes, adding phosphate buffered saline (PBS) with added sodium azide (metabolic inhibitor that ensure no viable tissue), then aliquoting into cuvettes to read at an optical density of 300 nm. […] So, at the end of the initial studies described above, almost out of frustration, we tried to probe for released phosphatase activity using p-Nitrophenyl phosphate disodium salt (PNPP; Sigma Aldrich, St. Louis, MO) substrate solution to detect any presence of phosphatase.
• 1. Thaw 2 pieces of frozen porcine skin • a. Punch out as many skin discs and mount in holders • 2. Label cuvettes (3 for each chemical)
• 1. Add 500 μL of test chemical to holder; incubate at room temperate for 30 minutes • 2. After 30 minutes, add 2 mL of PBS-Azide to both the holder containing the test chemical; forcefully pipette and re-pipette 10 times • 3. From the holder, aliquot 400 μL into 3 cuvettes; forcefully pipette and re-pipette 3 times before dispensing into cuvettes
Skin corrosion by GHS Category 1 dermal corrosive chemicals results in the disintegration of the epidermis into the dermis.

porcine skin = details: R 1 and 2
Description: Our initial studies involved using fresh and frozen porcine skin “buttons”. These buttons were punched out of porcine skin (Spear Products, Cooopersburg, PA) using a […] biopsy punch tool. Three different kinds of skin buttons were prepared from fresh porcine skin, frozen porcine skin, and frozen porcine skin with the fatty layer removed. […] The next day, the tubes were taken out and vortexed and 500 μL of the solution was aliquoted into cuvettes to read at three different optical density wavelengths (OD190, OD290, OD300) to evaluate the best response.
• 1. Thaw 2 pieces of frozen porcine skin • 2. Punch out buttons: 24 buttons in each tube filled with 40 mL PBS-Azide
• 1. Plate layout for dosing:
• 1. Dose each tissue with 140 μL of test chemical • 2.
• 1. Take out of incubator and vortex pulse 3× • 2. Aliquot 500 μL to cuvette and read results at OD190, OD290, and OD300
There were three readings done at an optical density of 190, 290, and 300 nm to evaluate the best response. […] To address the variable exposure conditions, our next studies involved placing a larger porcine skin section into a holder that exposes only the epidermis side with no potential for test chemical exposure from the backside or through the sides.

alkaline phosphatase [3] = target: T1, alkaline phosphatase; format: biochemical; parameters: purchased Sigma Aldrich, St. Louis, MO P0114 (original source); P7640 (second source, 'new AP' condition only); details: original alkaline phosphatase 1:100 dilution
Excerpt: Our next study focused on an in vitro method of detecting the potential of dermal corrosives to inhibit nonspecific phosphatases that may be released from the skin. We decided to test pure […] instead of relying on endogenous skin phosphatase. Alkaline phosphatase (Sigma Aldrich, St. Louis, MO) was purchased and suspended to make the reaction reagent (10,000 units). […] We note that the ratio used was 0.1 g/ml or 10% chemical-which is far in excess of any pharmaceutical applications. We further note that pharmaceutical enzyme inhibition tests, studies an use involve highly specific active site binding and these assays are conducted at ratios of micrograms-femtograms per ml. These studies are done at these ranges because these are the realistic concentrations for drug applications and therapeutics. […] So when a 50 Kg human consumes the tables, the tissues will be exposed at a 5 mg/50 kg=0.1 mg/kg=0.0000001 g/ml.
Next two quantitative methods were evaluated: 1) using the discs parts from our OptiSafe™ test method and 2) directly into the 24-well plate.
• 1. Alkaline phosphatase reaction reagent • a. Take 1 vial of AP, add 1 mL of PBS, mix by pipette/re-pipette 10 times • b. To a 50 mL conical tube, add 1 mL of the AP solution prepared above and 40 mL of PBS • 2. Prepare two 24-well plates (1 with discs, 1 without discs) • 3. […] Aliquot 200 μL PNPP and PBS
• 1. Plate 1 (No Discs) • a. Add 1.25 mL from the prepared PBS-AP conical tube to each well (11 wells) • b. Add 100 μL of the test material to the well, mix with the same pipette tip, dispose and repeat for the rest of the test materials • c. Wrap the plate in saran wrap and place into the container • 2. Plate 2 (Discs) • a. Configure the 11 discs in the plate so the plate cover is stable • b. Add 1.25 mL from the prepared PBS-AP conical tube to each well (11 wells) • c. Add 100 μL of the test material to the center of the disc and repeat for the rest of the test materials • d. Put the plate cover on and place into the container • 3. […] Incubate for 1 hour
For the new study, the alkaline phosphatase was suspended in phosphate buffered saline (PBS) to make the reaction reagent. Then, 100 μL of the test chemical is added directly into the corresponding wells on a 24-well plate with 1.25 mL of alkaline phosphatase reaction reagent already aliquoted.
• 1. Alkaline phosphatase reaction reagent • a. Take 1 vial of AP, add 1 mL of PBS, mix by pipette/re-pipette 10 times • b. To a 50 mL conical tube, add 1 mL of the AP solution prepared above and 40 mL of PBS • 2. Prepare two 24-well plates • 3. […] Aliquot with 200 μL PNPP and PBS • 4. Prepare glass vials Repeat Procedure from Jan. […] 24-well plate • a. Add 1.25 mL from the prepared PBS-AP conical tube to each well (11 wells) • b. Add 100 μL of the test material to the well, mix with the same pipette tip, dispose and repeat for the rest of the test materials • c. Wrap the plate in saran wrap and place into the container • 2. […] To the prepared 96-well plate with 200 μL PNPP or PBS, add 20 μL from the 24-well plate • 4. Incubate for 1 hour • 5.
• 1. 24-well plate • a. Add 1.25 mL from the prepared PBS-AP conical tube to each well (11 wells) • b. Add 100 μL of the test material to the well, mix with the same pipette tip, dispose and repeat for the rest of the test materials • c. After 10 minutes, mix each well • 2.

[4] = skin, chemical lists of the protocols
[5] = 1:100, 20 μL into 180 μL, 0.5 mL microcentrifuge tubes, 4 hours RT, PNPP 60 min, 405 nm
[6] = average of R1-R3, 1:100, 20 μL into 180 μL, 4 hours RT, PNPP 60 min, 405 nm
[7] = fresh porcine skin, 140 μL, 18 hours at 37° C. in PBS-Azide
[8] = frozen porcine skin with fat layer removed

Compound | A1-Results AVG (alkaline phosphatase [1]) | A1-Results R1 (alkaline phosphatase [1]) | A1-Results R3 (alkaline phosphatase [1]) | A1-Results R1 (alkaline phosphatase [1]; [5]) | A1-Results R3 (alkaline phosphatase [1]; [5]) | A1-Results AVG (alkaline phosphatase [1]; [6]) | other results
CCCCCCCCCCO [1-Decanol] | 3.449 | 3.502 | 3.380 | – | – | – | –
CC/C=C\CC1=C(C)CCC1=O | 3.502 | 3.502 | 3.502 | – | – | – | –
CCCCCCCN [n-Heptylamine] | 2.557 | 2.141 | 2.862 | – | – | – | in vivo GHS (skin; [4]): Cat. 1B/1C; OD405 readings (FIG. 6D) (alkaline phosphatase [1]): 3.244 and 3.057 and 3.152; prediction based on OD405 values (FIG. 6B) (alkaline phosphatase [1]): incorrectly predicted
CC(C=O)Cc1ccc(C(C)C)cc1 (stereo not shown) [Cyclamen aldehyde] | – | – | – | 3.405 | 3.502 | 3.470 | percent of phosphatase measured (first reading) [2]: 100.0%; percent of phosphatase measured (second reading) [2]: 100.0%; percent of phosphatase measured, average [2]: 100.0%; Corrosive (skin; Table 2): No; in vivo GHS (skin; skin, Tables 1A-1C and 2): Cat. 2; in vivo GHS (skin; [4]): Cat. 2 (Category 2 (irritation; mean score of ≥2.3 and ≤4.0 for erythema/eschar or for oedema in at least 2 of 3 tested animals at 24, 48, and 72 hours or inflammation that persists to the end of 14 days)); OD190 (porcine skin; [7]): 0.694 and 0.716; OD290 (porcine skin; [7]): 0.290 and 0.477; OD300 (porcine skin; [7]): 0.274 and 0.447; OD190 (porcine skin; [8]): 0.222 and 0.214; OD290 (porcine skin; [8]): 0.195 and 0.153; OD300 (porcine skin; [8]): 0.142 and 0.119; OD290 (porcine skin; frozen porcine skin): 1.023 and 0.955; OD300 (porcine skin; frozen porcine skin): 0.901 and 0.852
OCCOCCOCCO [Triethylene glycol] | – | – | – | – | – | – | percent of phosphatase measured (first reading) [2]: 29.5%; percent of phosphatase measured (second reading) [2]: 28.2%; percent of phosphatase measured, average [2]: 28.9%; Corrosive (skin; rabbit, in vivo): No
CCCCCCC=O [Heptanal] | 3.196 | 3.409 | 3.049 | – | – | – | percent of phosphatase measured (first reading) [2]: 100.0%; percent of phosphatase measured (second reading) [2]: 94.4%; percent of phosphatase measured, average [2]: 97.2%; Corrosive (skin; rabbit, in vivo): No; in vivo GHS (skin; rabbit, in vivo): Cat. 2
CSc1ccc(C=O)cc1 | – | – | – | 3.354 | 3.238 | 3.344 | –
CC(C)(C)c1ccccc1O [2-tert-Butylphenol] | – | – | – | 0.437 | 0.607 | 0.524 | in vivo GHS (skin; rabbit, in vivo): Cat. 1B/1C; prediction based on OD405 values (FIG. 6B) (alkaline phosphatase [1]; original alkaline phosphatase 1:1, 18 hours room temperature): incorrectly predicted; prediction based on OD405 values (FIG. 6D) (alkaline phosphatase [3]): correctly predicted
OCCc1ccccc1 [Phenylethyl alcohol] | 3.469 | 3.502 | 3.403 | – | – | – | –
O=C(OCc1ccccc1)c1ccccc1O [Benzyl Salicylate] | – | – | – | 3.502 | 3.445 | 3.464 | –
CC(C)O [Isopropanol] | 3.423 | 3.484 | 3.305 | – | – | – | –
CC(=O)OCc1ccccc1 [Benzyl Acetate] | – | – | – | 3.401 | 3.502 | 3.463 | –
CC(C)(O)CCc1ccccc1 [2-Methyl-4-phenyl-2-butanol] | – | – | – | – | – | – | percent of phosphatase measured (first reading) [2]: 98.6%; percent of phosphatase measured (second reading) [2]: 100.0%; percent of phosphatase measured, average [2]: 99.3%; Corrosive (skin; Table 2): No
C=C(C)[C@@H]1CC=C(CO)CC1 [p-Metha-1,8-dien-7-ol] | – | – | – | – | – | – | in vivo GHS (skin; [4]): Cat. 2 (Category 2 (irritation; mean score of ≥2.3 and ≤4.0 for erythema/eschar or for oedema in at least 2 of 3 tested animals at 24, 48, and 72 hours or inflammation that persists to the end of 14 days))
CC(CC=O)CCCC(C)(C)O (stereo not shown) [Hydroxycitronellal] | 3.356 | 3.412 | 3.154 | – | – | – | –
CCCCCCCCCCCCCC(=O)OC(C)C [Isopropyl Myristate] | 3.451 | 3.373 | 3.484 | – | – | – | –
CC1=CCC(C(C)(C)O)CC1 (stereo not drawn) [alpha-Terpineol] | – | – | – | 3.502 | 3.502 | 3.502 | –
CC(C)=CCC/C(C)=C/CO | – | – | – | 3.406 | 3.502 | 3.470 | in vivo GHS (skin; [4]): Cat. 2 (Category 2 (irritation; mean score of ≥2.3 and ≤4.0 for erythema/eschar or for oedema in at least 2 of 3 tested animals at 24, 48, and 72 hours or inflammation that persists to the end of 14 days))
BrCCc1ccccc1 [(2-Bromoethyl)benzene] | – | – | – | – | – | – | percent of phosphatase measured (first reading) [2]: 100.0%; percent of phosphatase measured (second reading) [2]: 100.0%; percent of phosphatase measured, average [2]: 100.0%; Corrosive (skin; rabbit, in vivo): No
CCCSSCCC [di-n-Propyl disulfide] | – | – | – | 3.467 | 3.395 | 3.445 | percent of phosphatase measured (first reading) [2]: 68.1%; percent of phosphatase measured (second reading) [2]: 71.6%; percent of phosphatase measured, average [2]: 69.9%; Corrosive (skin; Table 2): No; in vivo GHS (skin; skin, Tables 1A-1C and 2): Cat. 2; in vivo GHS (skin; [4]): Cat. 2 (Category 2 (irritation; mean score of ≥2.3 and ≤4.0 for erythema/eschar or for oedema in at least 2 of 3 tested animals at 24, 48, and 72 hours or inflammation that persists to the end of 14 days))
CCCCCBr [1-Bromopentane] | – | – | – | 3.428 | 3.056 | 3.261 | in vivo GHS (skin; [4]): Cat. 2 (Category 2 (irritation; mean score of ≥2.3 and ≤4.0 for erythema/eschar or for oedema in at least 2 of 3 tested animals at 24, 48, and 72 hours or inflammation that persists to the end of 14 days))
